From US20070093449A1, “Novel IV formulation of tipifarnib” (priority 2005, published 2007)
Read-outs that look alike come from different tables or passages of the source.

Key:
[1] = system: human hepatocytes; details: in vitro; cited from earlier work
[2] = system: plasma proteins; experiment: In vitro plasma protein binding, plasma from 5 healthy men; type: in vitro ADME, human
From the text: The value of the plasma protein binding of tipifarnib from the ex vivo measurement on cancer subjects in this trial is very close to that (99.22% bound) obtained from an in vitro experiment with the plasma samples from 5 healthy men. […]

[3] = system: advanced solid tumor; experiment: Clinical assessment: efficacy / tumor response; type: in vivo, human
Description: (§1) Complete patient history was taken, and a physical examination (including vital signs), hematological tests, and clinical chemistry tests were performed at baseline and during treatment. To assess cardiovascular safety, twelve-lead E.C.G.s were recorded at screening, during Cycle 1 and at the end of therapy. Although objective tumor response was not the primary objective of this study, an attempt was made to obtain appropriate measurements to assess response. All adverse events and clinically relevant laboratory abnormalities were graded according to Common Toxicity Criteria (CTC version 2.0)

[4] = system: plasma proteins; experiment: Tipifarnib protein binding analysis, equilibrium dialysis of patient plasma (ex vivo); type: in vitro ADME, human
Description: Tipifarnib was specifically labeled with [^14C] at the asymmetric carbon atom. A 7-mL blood sample was taken from 24 patients at 4 hours after the start of the continuous intravenous infusion of tipifarnib on Day 4. The plasma samples were fortified with [^14C]-tipifarnib at 500 ng/ml. The fortified plasma samples were subjected to equilibrium dialysis against a 0.067 M phosphate buffer, pH 7.17 at 37° C. for 4 hours in a Dianorm system with identical macro-1 Teflon cells and Diachema 10.17 dialysis membranes (MW cut-off 10,000). Radioactivity levels were measured in duplicate 100-μl aliquots of the fortified plasma before and after equilibrium dialysis, and in 1000-μl duplicate aliquots of the contents of buffer compartments of the dialysis cells admixed with methanol after dialysis in a Packard Tri-Carb 1900 TR liquid scintillation spectrometer. The total protein concentration was determined with a colorimetric biureet method, kit Roche Diagnostics 1929917. The albumin concentration was determined with a colorimetric bromocresol green method kit Roche Diagnostics 1970909. The α1-acid glycoprotein concentration was determined with an immuno-turbidimetric method, kit Roche Diagnostics 1557602. All these tests were performed on a Roche Hitachi Modular analyser. […]

[5] = target: CYP3A4 (Homo sapiens, UniProt P08684); details: compared to CYP2C19, CYP2A6, CYP2D6, CYP2C8/9/10; cited from earlier work
Chain of CYP3A4 (P08684 whole entry): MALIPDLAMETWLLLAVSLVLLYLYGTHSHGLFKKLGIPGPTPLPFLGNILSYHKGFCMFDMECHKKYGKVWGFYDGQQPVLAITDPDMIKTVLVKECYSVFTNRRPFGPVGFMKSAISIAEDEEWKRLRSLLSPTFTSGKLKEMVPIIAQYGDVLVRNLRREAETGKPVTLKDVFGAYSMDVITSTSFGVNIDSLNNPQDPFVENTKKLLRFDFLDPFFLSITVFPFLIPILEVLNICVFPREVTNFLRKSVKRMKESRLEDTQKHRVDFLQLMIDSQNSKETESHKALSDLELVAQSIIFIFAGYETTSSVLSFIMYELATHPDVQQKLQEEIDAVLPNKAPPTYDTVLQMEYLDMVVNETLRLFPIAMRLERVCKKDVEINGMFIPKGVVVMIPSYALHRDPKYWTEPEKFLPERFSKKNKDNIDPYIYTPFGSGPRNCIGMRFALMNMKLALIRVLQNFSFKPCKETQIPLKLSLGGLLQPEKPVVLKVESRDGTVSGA

[6] = cited from earlier work
[7] = target: human farnesyltransferase (FTase) (Homo sapiens, UniProt P49354+P49356); details: in vitro and in vivo; cited from earlier work
[8] = oral administration, cited from earlier work
[9] = Clinical assessment: toxicity (CTC version 2.0), dose-limiting toxicity; type: in vivo, human
From the text: The second and third subjects in the cohort were to be started only when the first subject completed the first intravenous and the oral treatment (i.e., 8-day period) without a dose-limiting toxicity (DLT). If a DLT occurred in 1 of 3 subjects of either the first or the second cohort, 3 supplementary subjects were to be added to that cohort. If more than 1 subject experienced DLT (either in the first 3 subjects or in the extended cohort of 6 subjects), dose escalation was to be terminated, and other subjects in that cohort had to complete their therapy at the same dose.
as §1

[10] = Solubility and hydrolytic stability of tipifarnib in water; type: physicochemical
Description: Tipifarnib is a base with very good water solubility at acidic pH. It hydrolyzes to R110127, wherein the amine functionality is replaced by a hydroxy functionality. […] R110127 has the following structure: [drawing 2]
[…] is added to Formulation 1 to solubilize tipifarnib when it is reconstituted with Formulation 2. The pH value of the reconstituted solution is ˜4.5. At this pH value tipifarnib precipitates if no Hydroxypropyl-β-cyclodextrin is present. The risk of local irritation during infusion into a peripheral vein (arm) is at an acceptable level at this pH value.

[11] = Plasma pharmacokinetics of tipifarnib after oral, 2-hour i.v. and continuous i.v. administration in cancer patients; type: in vivo, human; details: for systemic exposure (AUC0-10h) lower relative to 200 mg oral dose: Day 4, cohort 1 (3 subjects); for systemic exposure lower relative to 200 mg oral dose: cohort 2 (3 subjects); for bioavailability: oral, dose-normalized AUC0-10h, fed, read-out: mean absolute bioavailability of the oral tablet; for bioavailability / Tmax: 200 mg; for Tmax: po
Description: The objective of the first (dose-determination) phase of the study was to identify an intravenous regimen that was well tolerated. It was expected that this regimen would be equivalent to 50% -60% of a clinically relevant oral dose (200 mg), based on a prior pilot determination of absolute bioavailability in healthy male volunteers. A first cohort of 3 subjects received the following uninterrupted 4-day consecutive treatments of tipifarnib: 30 mg as a 2-hour intravenous infusion b.i.d. on Day 1-4, followed by 200 mg as oral administration b.i.d. on Day 5-8, followed by 60 mg per day as a continuous intravenous infusion on Day 9-12. Similarly, a second cohort of 3 subjects received similar 4-day regimens of tipifarnib: 60 mg as a 2-hour intravenous infusion b.i.d., followed by 200 mg as oral administration b.i.d., followed by 120 mg per day as a continuous intravenous infusion. There was no washout period between each of the 4-day oral or i.v. treatments described.
The second (i.v.-oral bridging) phase of the study was completed in separate group of patients. Systemic exposure to tipifarnib following the selected 2-hour and continuous intravenous regimens (from the previous dose-determination phase) was compared to exposure after a 200-mg b.i.d. oral regimen. The bridging phase was initiated when at least 2 subjects of the second cohort of the dose-determination phase were observed without DLT until Day 21. A total of 24 subjects were randomly assigned in a 1:1 ratio to one of two treatment sequences at the chosen intravenous regimens, in order to account for potential sequence-effects.
Sequence 1: 100 mg b.i.d. administered as a 2-hour intravenous infusion on Days 1-4, followed by 200 mg oral tablets b.i.d. on Days 5-8, then 200 mg/day administered as a continuous 4-day intravenous infusion on Days 9-12.
Sequence 2: 200 mg/day administered as a continuous 4-day intravenous infusion on Days 1-4, followed by 200 mg oral tablets b.i.d. on Days 5-8, then 100 mg b.i.d. administered as a 2-hour intravenous infusion on Days 9-12.
In both the dose-determination and the bridging phases, pharmacokinetic sampling was performed during a 10-hour period from the start of the morning dose on Day 4 of each treatment. Whole blood samples were taken immediately before, and 0.5, 1, 2, 3, 4, 6, 8, and 10 hours after oral administration. For 2-hour intravenous infusion, blood samples were taken immediately before, and 1, 2 (i.e. just before the end of the infusion), 2.25, 3, 4, 6, 8, and 10 hours after dosing. Blood samples were taken immediately before, and 2, 4, 6, 8, and 10 hours after the start of the continuous intravenous infusion.
A minimum of 7 mL of blood for each PK sample was collected. Whole blood samples were immediately placed on ice and centrifuged within 2 hours after collection (10 min, 1000×g). Separated plasma was frozen immediately at ≦−18° C. until assayed.
Plasma samples were thawed at room temperature, and individual sample was analyzed for tipifarnib using a previous published method. To 1-ml aliquots of human plasma, 200 ng of the internal standard (R121550, a structural analog) was spiked. After adding 1 ml of NaOH (0.1M), the samples were extracted twice with 4 ml of heptane containing 10% of isoamylalcohol. The combined organic phases were back-extracted with 2 ml of HCl (2M). After alkalization with concentrated ammonia, the aqueous phase was extracted once with 5 ml of heptane containing 5% of isoamylalcohol. This extract was evaporated under nitrogen at 65° C. and the residue dissolved in 100 microliters of injection solvent (Ammoniumacetate 0.01M/acetonitile/methanol; 50/25/25). A 15 μl extract was injected into an HPLC with UV detection (Agilent) at a wavelength of 240 nm. Separation was performed on a 10 cm×4.6 mm chromatographic column, packed with 3 μm C 18 BDS-Hypersil (Alltech). […]

[12] = oral 50- to 500-mg b.i.d.; cited from earlier work
[13] = 2-hour i.v. infusion 100 mg b.i.d. versus oral 200 mg b.i.d.

fraction unbound at 4 h, 1000 ng/mL ([2]; male, human, pH 7.17, blank plasma fortified with 14C-tipifarnib at 1000 ng/mL, read-out: plasma protein binding (bound) (converted)): 0.0078
mean free (unbound) fraction ([4]; plasma drawn 4 hours after start of continuous i.v. infusion, Day 4): 0.62%
water solubility ([10]; acidic pH): very good
solubility in reconstituted solution ([10]; pH ~4.5, without hydroxypropyl-β-cyclodextrin): precipitates
systemic exposure (AUC0-10h) lower relative to 200 mg oral dose ([11]; 30 mg b.i.d. 2-hour intravenous infusion): approximately 64%
systemic exposure lower relative to 200 mg oral dose ([11]; 60 mg b.i.d. 2-hour intravenous infusion): approximately 47%
systemic exposure (AUC0-10h) lower relative to 200 mg oral dose ([11]; 60 mg per day continuous intravenous infusion): ~59%
systemic exposure lower relative to 200 mg oral dose ([11]; 120 mg per day continuous infusion): ~46%
AUC0-10h higher than after oral administration [11, 13]: 19.3%
Cmax higher than after oral administration [11, 13]: 48.0%
bioavailability ([11]; human, plasma, oral versus 2-hour i.v.): 46.3%
bioavailability ([11]; human, plasma, oral versus continuous intravenous infusion): 40.9%
Tmax ([11]; human, plasma, oral 200 mg b.i.d. for 4 days, read-out: time of maximum plasma concentration (tmax)): ~2 h
Tmax ([11]; human, plasma, oral 200 mg b.i.d., 29 subjects, read-out: range of tmax): 0.5 to 3 h
AUC(0-t) ([11]; human, plasma, oral 200 mg b.i.d., 2-hour i.v. 100 mg b.i.d., continuous i.v. 200 mg/day, read-out: range of mean AUC0-10h values across the 3 treatments): 3990 to 4490 ng·h/mL
AUC(0-t) ([11]; human, plasma, oral 200 mg b.i.d., Day 4, n=24, read-out: arithmetic mean AUC0-10h (±SD)): 3990 ± 1670 ng·h/mL
Cmax ([11]; human, plasma, oral 200 mg b.i.d., Day 4, n=24, read-out: arithmetic mean Cmax (±SD)): 994 ± 487 ng/mL
arithmetic mean AUC0-10h (±SD) ([11]; oral 200 mg b.i.d., Day 4, n=24): 3990 ng·h/mL
SMILES: Cn1cncc1[C@@](N)(c1ccc(Cl)cc1)c1ccc2c(c1)c(-c1cccc(Cl)c1)cc(=O)n2C [tipifarnib]
metabolism in human hepatocytes [1]: undergoes direct glucoronidation
dependence of in vitro plasma protein binding on total tipifarnib concentration ([2]; range 100 to 5000 ng/mL): independent of the total tipifarnib concentrations
objective tumor responses ([3]; 31 subjects evaluable): No objective tumor responses were observed
stable disease for at least 6 months ([3]; 31 subjects evaluable): 14 subjects
duration of hematological improvement (durable increase in hemoglobin) ([3]; one subject with MDS): 8 months
dependence of unbound fraction on total drug plasma concentration ([4]; range 211 ng/mL to 812 ng/mL): independent of total drug plasma concentration
CYP450 metabolic pathway [5]: CYP3A4 was a predominant metabolic pathway
mean AUC0-10h ([6]; 150 mg orally twice daily): 2495 ng·h/mL
mean Cmax ([6]; 150 mg orally twice daily): 443 ng/mL
mean AUC0-10h ([6]; 300 mg orally twice daily): 4674 ng·h/mL
mean Cmax ([6]; 300 mg orally twice daily): 974 ng/mL
inhibition of human farnesyltransferase (FTase) [7]: potent and selective nonpeptidomimetic competitive inhibitor
concentrations of unchanged tipifarnib lower than total radioactivity concentrations ([8]; deproteinized samples): approximately 8 times
concentrations of unchanged tipifarnib lower than total radioactivity concentrations ([8]; nonprecipitated samples): 42 times
oral dose recovered in faeces as tipifarnib [8]: less than 7%
unchanged drug excreted in the urine [8]: No unchanged drug was excreted in the urine
febrile neutropenia, subjects ([9]; 1 subject): 3%
Grade 3 or 4 drug-related neutropenia, patients ([9]; 9/30 patients): 30%
phlebitis ([9]; IV bolus via peripheral venous access, not observed via central vein): 3 subjects
dose limiting toxicity ([9]; cohort 1: 30 mg b.i.d. 2-hour i.v., 60 mg per day continuous i.v.): No dose limiting toxicity
dose limiting toxicity (DLT) ([9]; cohort 2: 60 mg b.i.d. 2-hour i.v., 120 mg per day continuous i.v.): no DLT was observed
adverse events associated with intravenous administration ([9]; intravenous tipifarnib): No unusual adverse events
drug-related anorexia ([9]; mainly grade 1): 20%
drug-related diarrhea ([9]; mainly grade 1): 13%
drug-related fatigue ([9]; mainly grade 1): 60%
drug-related nausea ([9]; mainly grade 1): 40%
drug-related vomiting ([9]; mainly grade 1): 17%
rate of hydrolytic degradation to R110127 ([10]; aqueous): lowest at acidic condition but still very fast
peak concentration range [12]: 68 to 1458 ng/mL
